Tests used:
[1] = system: SOLNI (black nightshade); assay: Pre-plant incorporated (PPI) herbicidal activity, warm season; type: in vivo, Solanum nigrum
Method in brief: (§1)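 Seeds sown on compacted topsoil were covered with soil into which test compound (organic solvent solution/suspension) had been sprayed and mixed; untreated cover soil for controls. Greenhouse, 0.64 cm overhead irrigation; warm season 30/21° C, cool season 18/13° C day/night. Percent inhibition versus untreated scored ~14 days after treatment.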

[2] = system: BRAPP (broadleaf signalgrass); assay: Pre-emergence herbicidal activity, warm season; type: in vivo, Brachiaria platyphylla; conditions: for Pre-emergence activity (GR80) BRAPP: GR80 = lowest tested rate (300, 100, 30, 10 g/ha) with 80% or greater inhibition, approx. 14 days after treating, 30/21° C.
Method in brief: (§2)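 GR80 values derive from percent inhibition relative to untreated plants, read roughly 14 days after sowing and pre-emergence soil-surface treatment (compound in 50:50 acetone/water; rates typically 10, 30, 100, 300 g/ha). Warm-season weeds grew at 30/21° C day/night, cool-season ones at 18/13° C; an asterisk marks activity without reaching 80% at the highest rate.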

[3] = system: PANDI (fall panicum); assay: Pre-emergence herbicidal activity, warm season; type: in vivo, Panicum dichotomiflorum; conditions: GR80 = lowest tested rate (300, 100, 30, 10 g/ha) with 80% or greater inhibition; approx. 14 days after treating; 30/21° C.
Method in brief: as §2

[4] = system: SASKR (russian thistle); assay: Pre-plant incorporated (PPI) herbicidal activity, cool season; type: in vivo, Salsola kali; conditions: for Percent inhibition SASKR: weed, PPI application
Method in brief: as §1

[5] = system: CIRAR (canada thistle (seedling)); assay: Pre-emergence herbicidal activity, warm season; type: in vivo, Cirsium arvense; conditions: GR80 = lowest tested rate (300, 100, 30, 10 g/ha) with 80% or greater inhibition; approx. 14 days after treating; 30/21° C.
Method in brief: (§3)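 Seeds sown in sterilised fertilised topsoil received surface-applied compound in 50:50 acetone/water, typically at 300, 100, 30 and 10 g/ha, then greenhouse-grown at 30/21° C (warm-season species) or 18/13° C (cool-season species). Percent inhibition versus untreated plants was scored at about 14 days, giving GR80; an asterisk marks activity short of 80% at the top rate.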

[6] = system: CHEAL (common lambsquarters); assay: Pre-emergence herbicidal activity, warm season; type: in vivo, Chenopodium album; conditions: GR80 = lowest tested rate (300, 100, 30, 10 g/ha) with 80% or greater inhibition; approx. 14 days after treating; 30/21° C.
Method in brief: as §3

[7] = system: POROL (common purslane); assay: Pre-emergence herbicidal activity, warm season; type: in vivo, Portulaca oleracea; conditions: GR80 = lowest tested rate (300, 100, 30, 10 g/ha) with 80% or greater inhibition; approx. 14 days after treating; 30/21° C.
Method in brief: as §3

[8] = system: wheat (TRZAW); assay: Selectivity test, PPI, cool season crop; type: in vivo, Triticum aestivum; conditions: PPI application
Method in brief: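 Pre-plant incorporated: compound in organic solvent sprayed onto cover soil, mixed and laid over seeds; untreated soil for controls. Greenhouse after treatment: warm season 30/21° C., cool season 18/13° C. day/night. Percent inhibition versus untreated plants scored about 14 days after planting.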

[9] = system: CHEAL (common lambsquarters); assay: Pre-plant incorporated (PPI) herbicidal activity, warm season; type: in vivo, Chenopodium album; conditions: for Percent inhibition CHEAL: PPI application
Method in brief: as §1

[10] = system: SORHA (johnsongrass (seedling)); assay: Pre-emergence herbicidal activity, warm season; type: in vivo, Sorghum halepense; conditions: for Pre-emergence activity (GR80) SORHA: GR80 = lowest tested rate (300, 100, 30, 10 g/ha) with 80% or greater inhibition, approx. 14 days after treating, 30/21° C.
Method in brief: as §2

[11] = system: AGSST (creeping bentgrass); assay: Pre-plant incorporated (PPI) herbicidal activity, cool season; type: in vivo, Agrostis stolonifera; conditions: for Percent inhibition AGSST: weed, PPI application
Method in brief: as §1

[12] = system: BRAPP (broadleaf signalgrass); assay: Pre-plant incorporated (PPI) herbicidal activity, warm season; type: in vivo, Brachiaria platyphylla
Method in brief: as §1

[13] = pre-plant incorporated, GR80 = lowest tested rate with 80% or greater inhibition, approx. 14 days after treating, 30/21° C.
[14] = pre-plant incorporated, lowest tested rate with 80% or greater inhibition, about 14 days

## CCN(CC)C(=O)n1cnc(S(=O)(=O)C(F)(F)Cl)n1 [Example 3]
[1]; PPI application, 30 g/ha
  Percent inhibition SOLNI: 70%
[1]; PPI application, 100 g/ha
  Percent inhibition SOLNI: 100%
[1]; PPI application, 300 g/ha
  Percent inhibition SOLNI: 100%
[1]; PPI application, 900 g/ha
  Percent inhibition SOLNI: 100%
[2]
  Pre-emergence activity (GR80) BRAPP: 100 g/ha
[3]
  Pre-emergence activity (GR80) PANDI: 100 g/ha
[4]; 30 g/ha
  Percent inhibition SASKR: 80%
[4]; 100 g/ha
  Percent inhibition SASKR: 80%
[4]; 300 g/ha
  Percent inhibition SASKR: 100%
[4]; 900 g/ha
  Percent inhibition SASKR: 100%
[5]
  Pre-emergence activity (GR80) CIRAR: 30 g/ha
[6]
  Pre-emergence activity (GR80) CHEAL: 100 g/ha
[7]
  Pre-emergence activity (GR80) POROL: 100 g/ha
[8]; 30 g/ha
  Percent inhibition TRZAW: 0%
[8]; 100 g/ha
  Percent inhibition TRZAW: 0%
[8]; 300 g/ha
  Percent inhibition TRZAW: 20%
[8]; 900 g/ha
  Percent inhibition TRZAW: 40%
[9]; 30 g/ha
  Percent inhibition CHEAL: 80%
[9]; 100 g/ha
  Percent inhibition CHEAL: 99%
[9]; 300 g/ha
  Percent inhibition CHEAL: 100%
[9]; 900 g/ha
  Percent inhibition CHEAL: 100%
[10]
  Pre-emergence activity (GR80) SORHA: 100 g/ha
[11]; 30 g/ha
  Percent inhibition AGSST: 100%
[11]; 100 g/ha
  Percent inhibition AGSST: 100%
[11]; 300 g/ha
  Percent inhibition AGSST: 100%
[11]; 900 g/ha
  Percent inhibition AGSST: 100%
[12]; PPI application, 30 g/ha
  Percent inhibition BRAPP: 30%
[12]; PPI application, 100 g/ha
  Percent inhibition BRAPP: 100%
[12]; PPI application, 300 g/ha
  Percent inhibition BRAPP: 100%
[12]; PPI application, 900 g/ha
  Percent inhibition BRAPP: 90%

## CCN(CC)C(=O)n1cnc(S(=O)(=O)C(F)(F)C(F)(F)SC)n1 [Example 14]
[2]
  Pre-emergence activity (GR80) BRAPP: 300 g/ha
[3]
  Pre-emergence activity (GR80) PANDI: 100 g/ha
[5]
  Pre-emergence activity (GR80) CIRAR: 300 g/ha
[6]
  Pre-emergence activity (GR80) CHEAL: 300 g/ha
[7]
  Pre-emergence activity (GR80) POROL: 300 g/ha
[10]
  Pre-emergence activity (GR80) SORHA: 300 g/ha

## CCN(CC)C(=O)n1cnc(S(=O)(=O)C(F)F)n1 [Example 15, 1-(N,N-diethylcarbamoyl)-3-(difluoromethylsulfonyl)-1,2,4-triazole]
[1]; Solanum nigrum, PPI application, 10 g/ha, read-out: Percent inhibition SOLNI
  inhibition at 10 g/ha: 0%
[1]; Solanum nigrum, PPI application, 30 g/ha, read-out: Percent inhibition SOLNI
  inhibition at 30 g/ha: 0%
[1]; Solanum nigrum, PPI application, 100 g/ha, read-out: Percent inhibition SOLNI
  inhibition at 100 g/ha: 20%
[1]; Solanum nigrum, PPI application, 300 g/ha, read-out: Percent inhibition SOLNI
  inhibition at 300 g/ha: 100%
[1]; Solanum nigrum, PPI application, 900 g/ha, read-out: Percent inhibition SOLNI
  inhibition at 900 g/ha: 99%
[1]; [13]
  PPI activity (GR80) SOLNI: 100 g/ha
[2]
  Pre-emergence activity (GR80) BRAPP: 300 g/ha
[2]; Urochloa platyphylla, pre-emergence application, 10 g/ha, read-out: Percent inhibition, weed BRAPP
  inhibition at 10 g/ha: 0%
[2]; Urochloa platyphylla, pre-emergence application, 30 g/ha, read-out: Percent inhibition, weed BRAPP
  inhibition at 30 g/ha: 0%
[2]; Urochloa platyphylla, pre-emergence application, 100 g/ha, read-out: Percent inhibition, weed BRAPP
  inhibition at 100 g/ha: 40%
[2]; Urochloa platyphylla, pre-emergence application, 300 g/ha, read-out: Percent inhibition, weed BRAPP
  inhibition at 300 g/ha: 50%
[2]; Urochloa platyphylla, pre-emergence application, 900 g/ha, read-out: Percent inhibition, weed BRAPP
  inhibition at 900 g/ha: 85%
[3]
  Pre-emergence activity (GR80) PANDI: 100 g/ha
[4]; [14]
  PPI activity GR80, SASKR: 100 g/ha
[5]
  Pre-emergence activity (GR80) CIRAR: 30 g/ha
[7]
  Pre-emergence activity (GR80) POROL: 100 g/ha
[9]; [13]
  PPI activity (GR80) CHEAL: 100 g/ha
[10]
  Pre-emergence activity (GR80) SORHA: 100 g/ha
[10]; Sorghum halepense, pre-emergence application, 10 g/ha, read-out: Percent inhibition, weed SORHA
  inhibition at 10 g/ha: 0%
[10]; Sorghum halepense, pre-emergence application, 30 g/ha, read-out: Percent inhibition, weed SORHA
  inhibition at 30 g/ha: 0%
[10]; Sorghum halepense, pre-emergence application, 100 g/ha, read-out: Percent inhibition, weed SORHA
  inhibition at 100 g/ha: 30%
[10]; Sorghum halepense, pre-emergence application, 300 g/ha, read-out: Percent inhibition, weed SORHA
  inhibition at 300 g/ha: 95%
[10]; Sorghum halepense, pre-emergence application, 900 g/ha, read-out: Percent inhibition, weed SORHA
  inhibition at 900 g/ha: 100%
[11]; [14]
  PPI activity GR80, AGSST: 100 g/ha
[12]; Urochloa platyphylla, PPI application, 10 g/ha, read-out: Percent inhibition BRAPP
  inhibition at 10 g/ha: 0%
[12]; Urochloa platyphylla, PPI application, 30 g/ha, read-out: Percent inhibition BRAPP
  inhibition at 30 g/ha: 0%
[12]; Urochloa platyphylla, PPI application, 100 g/ha, read-out: Percent inhibition BRAPP
  inhibition at 100 g/ha: 95%
[12]; Urochloa platyphylla, PPI application, 300 g/ha, read-out: Percent inhibition BRAPP
  inhibition at 300 g/ha: 99%
[12]; Urochloa platyphylla, PPI application, 900 g/ha, read-out: Percent inhibition BRAPP
  inhibition at 900 g/ha: 100%
[12]; [14]
  PPI activity GR80, BRAPP: 100 g/ha
